The values below come from article PMC10287566, “Signaling-specific inhibition of the CB1 receptor for cannabis use disorder: phase 1 and phase 2a randomized trials” (Nature Medicine, 2023).

One data set deals with rats. Put plainly: Irwin test and body temperature (GLP). The conditions noted are these: rats, 2, 9 and 36 mg kg^−1 oral. The format is in vivo. As to the method:
The study involved four groups of six male Wistar rats weighing between 154.0 g and 185.9 g. […] On study day, animals were first scored by the Irwin standardized observation battery, and body temperature was measured. […] Irwin scores and measurement of body temperature were done again at 1, 3, 6, 8 and 24 h after dose.

The next data set deals with DIO mice. Put plainly: Food intake and body weight in diet-induced obese mice, repeated treatment. It is filed as in vivo. The settings on record: mice, acute and repeated 28 d, highest dose tested 15 mg/kg. As to the method: Body weight and food intake were studied because they are reduced by repeated treatment with rimonabant both in mice[31] and in humans. DIO mice were used because the effects of CB1 antagonists are of greater amplitude in obese mice than in lean mice. Male C57BL/6J mice (8 weeks old) were fed ad libitum with a high-fat diet (HFD) for 8 weeks before the start of the pharmacological treatments. During pharmacological treatments, the HFD was maintained, and food intake and body weight were measured daily. The food consumed was calculated by subtracting the food left in the hoppers from the initial pre-weighed amount.

In the case of `COc1ccc(CO[C@H]2CC[C@@]3(C)C(=CC[C@H]4[C@@H]5CC[C@H](C(C)=O)[C@@]5(C)CC[C@@H]43)C2)cc1` [AEF0117, 3β-(4-methoxybenzyloxy)pregn-5-en-20-one], in the data set with rats, the “effect on spontaneous behavior in the home cage (Irwin test)” value is listed as “had no effect”. The “Overall effect: inhibition of spontaneous food-intake” value in the data set on DIO mice is given as “No”.
